Test results reported in patent EP0385662B1, “Heterocycles with inhibitory activity of 5-lipoxygenase” (ZENECA LIMITED, priority 1989, dated 1990).

Columns and labels:
5-LO [1] = test: Test c): ex vivo variation of test b), oral administration, blood collection, A23187 challenge, radioimmunoassay of LTB4; assay type: in vivo
Protocol: (§1) As stated previously, the heterocycles of the formula I are inhibitors of the enzyme 5-LO. […] This test provides a measure of the intrinsic inhibitory properties against soluble 5-LO in an extracellular environment. • b) An in vitro assay system involving incubating a test compound with heparinised human blood, prior to challenge with the calcium ionophore A23187 and then indirectly measuring the inhibitory effects on 5-LO by assaying the amount of L TB4 using the specific radioimmunoassay described by Carey and Forder (F. Carey and R.A. Forder, Brit. J. Pharmacol. 1985, 84, 34P) which involves the use of a protein-L TB4 conjugate produced using the procedure of Young et alia (Prostaglandins, 1983, 26(4), 605-613). The effects of a test compound on the enzyme cyclooxygenase (which is involved in the alternative metabolic pathway for arachidonic acid and gives rise to prostaglandins, thromboxanes and related metabolites) may be measured at the same time using the specific radioimmunoassay for thromboxane B2(TxB2) described by Carey and Forder (see above). This test provides an indication of the effects of a test compound against 5-LO and also cyclooxygenase in the presence of blood cells and proteins. It permits the selectivity of the inhibitory effect on 5-LO or cyclooxygenase to be assessed. • c) An ex vivo assay system, which is a variation of test b) above, involving administration of a test compound (usually orally as the suspension produced when a solution of the test compound in dimethylsulphoxide is added to carboxymethylcellulose), blood collection, heparinisation, challenge with A23187 and radioimmunoassay of L TB4 and TxB2. […]

5-LO [2] = target: T1, 5-LO (Homo sapiens, UniProt P09917); test: Test b): in vitro heparinised human blood challenged with calcium ionophore A23187, radioimmunoassay of LTB4; assay type: cell-based; settings: A23187 challenge, read-out: IC50 against LTB4
T1 construct: incubating a test compound with heparinised human blood, prior to challenge with the calcium ionophore A23187; endogenous in cells; host or cells: leukocytes of heparinised human whole blood
T1 sequence (P09917 1-674): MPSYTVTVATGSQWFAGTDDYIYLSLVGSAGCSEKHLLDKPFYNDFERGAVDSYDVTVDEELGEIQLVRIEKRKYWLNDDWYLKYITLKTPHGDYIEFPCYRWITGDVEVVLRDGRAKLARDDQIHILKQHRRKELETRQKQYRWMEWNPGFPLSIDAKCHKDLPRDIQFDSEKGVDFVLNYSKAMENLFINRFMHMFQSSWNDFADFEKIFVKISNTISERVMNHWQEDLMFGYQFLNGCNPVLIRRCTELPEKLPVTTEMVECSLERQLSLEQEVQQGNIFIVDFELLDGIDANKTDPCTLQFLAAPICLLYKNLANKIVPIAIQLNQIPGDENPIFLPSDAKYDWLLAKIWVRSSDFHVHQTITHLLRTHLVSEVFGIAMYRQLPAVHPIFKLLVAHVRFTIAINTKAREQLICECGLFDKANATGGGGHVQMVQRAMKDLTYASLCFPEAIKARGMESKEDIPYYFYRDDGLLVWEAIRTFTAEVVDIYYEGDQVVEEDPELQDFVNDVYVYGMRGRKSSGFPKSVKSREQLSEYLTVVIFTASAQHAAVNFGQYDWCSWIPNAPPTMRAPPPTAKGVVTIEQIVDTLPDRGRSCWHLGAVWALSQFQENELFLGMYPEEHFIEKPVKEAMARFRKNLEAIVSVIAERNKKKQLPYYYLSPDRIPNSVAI
Protocol: as §1, with “J. Pharmacol. 1985, 84, 34P) which involves the use of a protein-L TB4 conjugate produced using the procedure of Young et alia (Prostaglandins, 1983, 26(4), 605-613).” left out, “This test provides an indication of the effects of a test compound against 5-LO and also cyclooxygenase in the presence of blood cells and proteins.” left out

cyclooxygenase = target: T2, cyclooxygenase (Homo sapiens, UniProt P23219); test: Test b): in vitro heparinised human blood challenged with A23187, radioimmunoassay of thromboxane B2 (TxB2); assay type: cell-based; settings: A23187 challenge, read-out: IC50 against TxB2
T2 construct: may be measured at the same time using the specific radioimmunoassay for thromboxane B2(TxB2); endogenous in cells; host or cells: blood cells (platelets) of heparinised human whole blood
Protocol: as §1, with “J. Pharmacol. 1985, 84, 34P) which involves the use of a protein-L TB4 conjugate produced using the procedure of Young et alia (Prostaglandins, 1983, 26(4), 605-613).” left out, “This test provides an indication of the effects of a test compound against 5-LO and also cyclooxygenase in the presence of blood cells and proteins.” left out

T2 sequence (P23219 24-599): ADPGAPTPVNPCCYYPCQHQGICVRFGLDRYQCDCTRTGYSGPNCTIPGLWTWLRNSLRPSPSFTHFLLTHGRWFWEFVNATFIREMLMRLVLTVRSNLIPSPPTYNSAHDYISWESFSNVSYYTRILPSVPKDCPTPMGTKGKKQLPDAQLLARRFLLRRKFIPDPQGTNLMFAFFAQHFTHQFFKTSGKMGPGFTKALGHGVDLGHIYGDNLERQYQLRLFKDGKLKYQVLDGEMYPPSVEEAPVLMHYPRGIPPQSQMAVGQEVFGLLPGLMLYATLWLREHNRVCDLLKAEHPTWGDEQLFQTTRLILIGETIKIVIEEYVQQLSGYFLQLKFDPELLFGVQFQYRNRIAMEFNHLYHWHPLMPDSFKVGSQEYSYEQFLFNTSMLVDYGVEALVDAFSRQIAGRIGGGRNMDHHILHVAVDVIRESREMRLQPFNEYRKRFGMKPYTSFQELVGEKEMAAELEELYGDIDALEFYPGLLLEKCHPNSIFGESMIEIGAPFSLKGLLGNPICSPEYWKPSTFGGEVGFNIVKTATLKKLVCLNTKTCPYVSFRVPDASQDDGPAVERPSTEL

| IC50 (5-LO [2]) [nM] | IC50 (cyclooxygenase) [nM] | Structure (SMILES) | oral ED50 against LTB4 (5-LO [1]) [mg/kg] |
| --- | --- | --- | --- |
|  |  | COC1(c2cccc(OCc3ccc4c(ccc(=O)n4C)c3)c2)CCOCC1 [4-[3-(1,2-dihydro-1-methyl-2-oxoquinolin-6-ylmethoxy)phenyl]-4-methoxytetrahydropyran] | 3 |
| 100 |  | COC1(c2cc(F)cc(OCc3ccc4ncccc4c3)c2)CCOCC1 [4-[5-fluoro-3-(6-quinolylmethoxy)phenyl]-4-methoxytetrahydropyran] | 8 |
| 2000 | > 40000 | COC1(c2cccc(OCC#Cc3ccccn3)c2)CCOCC1 [4-methoxy-4-[3-(3-(2-pyridyl)prop-2-yn-1-yloxy)phenyl]-tetrahydropyran] | < 100 |
